pKa data for 56 molecules are collected here from the pKa sets of Baltruschat and Czodrowski (2020).

Broadly, the pKa is the pH at which an ionisable group is half protonated. Low readings indicate a group that gives up its proton readily, high ones a group that holds its proton tightly.

As for `Cc1nc2cc(N)ccc2n1C`, the pKa (basic group) was 7.
On the same count and under the same terms, to `CCCCCC(C)N` (centres undefined) belongs 11.2.
On the same count and under the same terms, to `CC1CC[C@H](O)[C@@H](N)C1` (some centres undefined) belongs 9.5.
As for `O=S(=O)(O)c1ccc(Br)cc1`, the pKa (acidic group) is -6.72.
`O=C([O-])CCCc1c[nH]cn1`: the pKa (basic group) is 7.62.
For `O=S(=O)(Nc1ncccn1)c1ccccc1`, the pKa reads like this: (acidic group) 5.91; (basic group) 0.15.
Turning to `c1ccc(N2CCCC2)cc1`, the pKa (basic group) worked out at 4.3.
For `O=S(=O)(Nc1ccccn1)c1ccccc1`, the pKa (acidic group) turned out to be 8.2.
The molecule `c1nc2c(ccc3c4c(cnc32)CCCC4)c2c1CCCC2` registered a pKa (basic group) of 6.23.
Same read-out and setting: to `C#C[C@]1(O)C[C@@H](C)N[C@H]2CCCC[C@@H]21` belongs 9.29.
As for `CC=C=CC(C)(C)C(=O)O`, the pKa (acidic group) amounted to 4.58.
On the same count and under the same terms, as for `CO/C(C)=C\C(=O)O`, the figure is 5.81; as for `C[n+]1ccc2cc(O)ccc2c1`, 6.06.
The molecule `COc1ccc(OC)nn1` yielded a pKa (basic group) of 1.61.
As for `CC(Cl)CN` (centres undefined), the pKa (basic group) turned out to be 8.54.
In the case of `Cc1cnc2c(c1)c(C)cc1c(C)c(C)cnc12`, the pKa (basic group) worked out at 6.07.
For the molecule `c1cn[nH]c1`, the pKa (acidic group) came to 14.2 and the pKa (basic group) is 2.61.
As for `CCOP(=O)(O)NS(=O)(=O)c1ccccc1`, the pKa (acidic group) came out at 1.8.
`[NH3+]CCCCCCCCCCCC(=O)O` displayed a pKa (acidic group) of 4.65.
In turn, `COc1ccc(-c2nc3cnccc3[nH]2)c(OC)c1` yielded a pKa (basic group) of 6.49.
The molecule `CC(C)(C)N1NC2CCC1C2` (centres undefined) yielded a pKa (basic group) of 9.12.
In turn, `O=C(O)CNC(=O)c1ccccc1O` returned a pKa (acidic group) of 3.63.
In turn, `c1ccc(-c2ccc[nH+]c2)nc1` displayed a pKa (basic group) of 1.52.
On to `CCC[C@H]1NC(C(=O)[O-])CS1` (some centres undefined), for which the pKa (basic group) was found to be 6.25.
On to `Cc1cc(C)n(-c2ccccn2)n1`, for which the pKa (basic group) worked out at 1.89.
Turning to `CN(C)CC(=O)[O-]`, the pKa (basic group) turned out to be 9.81.
In turn, `O=C([O-])/C(=N\O)c1ccccc1` gave a pKa (acidic group) of 10.9.
`Nc1c2ccccc2[nH+]c2ccc(O)cc12`: the pKa (acidic group) was determined as 7.71.
`COc1ccc(O)cc1Br`: the pKa (acidic group) worked out at 9.09.
`COc1ccc(S(=O)(=O)NCCCN2CCOCC2)c(OC)c1OC` yielded a pKa (basic group) of 6.76.
As to `O=C(O)[C@]1(Cl)[C@@H]2CCC[C@@H]21`, the pKa (acidic group) came out at 2.82.
`CC(C)Nc1ncnc2[nH]ncc12` came in with a pKa (acidic group) of 11 and a pKa (basic group) of 4.62.
The molecule `C[NH+](C)CCCNc1c2ccccc2nc2c(F)ccc([N+](=O)[O-])c12` yielded a pKa (basic group) of 5.41.
In turn, `O=Cc1cccc(Cl)c1O` yielded a pKa (acidic group) of 6.61.
Molecule `[S-]c1ccncc1` displayed a pKa (acidic group) of 8.83.
The molecule `NC(=O)c1cncc2ccccc12` gave a pKa (basic group) of 3.8.
`COc1nccc2ccccc12` gave a pKa (basic group) of 3.05.
For `O=C(O)Cc1nnnn1-c1ccccc1`, where the note is “acidic group”, the pKa came to 3.1.
For the molecule `c1ccc(Nc2nccs2)cc1`, under “basic group”, the pKa is 4.33.
Molecule `O=C(O)C(c1ccc(-c2ccccc2)cc1)C1(O)CCCCC1` (centres undefined) returned a pKa (acidic group) of 3.59.
In turn, `CCCCNCCNCCCC` gave a pKa (basic group) of 10.2.
The molecule `CCOC(=O)c1cnc2ccccc2c1[O-]` returned a pKa (basic group) of 9.62.
`CO[n+]1ccc(O)cc1` came in with a pKa (acidic group) of 2.57.
In the case of `O=C1CCCCC1=O`, the pKa (acidic group) came out at 10.3.
Where the note is “acidic group”, `CC(=N\[O-])/C(C)=N/O` returned a pKa of 11.9.
`CCOC(=O)CCN` registered a pKa (basic group) of 9.13.
As to `O=C(NO)C1CCCCC1`, the pKa (acidic group) came to 9.87.
On to `Cc1n[nH]c(C)c1C`, for which, for the setting “basic group”, the pKa is 4.82.
For `CC(C)(C)C(=O)NC(O)C(Cl)(Cl)Cl` (centres undefined), the pKa (acidic group) came to 14.7.
In turn, `O=[N+]([O-])c1cc(Br)c(O)c(Br)c1` registered a pKa (acidic group) of 3.7.
Take `O=CC(=O)O`: under “acidic group”, the pKa turned out to be 1.26.
`CCCCCCCCCCCCCCCN` registered a pKa (basic group) of 10.6.
Where the note is “basic group”, `CSc1cc(C)ncn1` showed a pKa of 3.25.
Take `COc1cccc2c1CN(C1CC3CCC(C1)N3Cc1ccccc1)C2=O` (centres undefined): the pKa (basic group) was found to be 8.68.
As for `CC/C=C/CC(=O)O`, for the setting “acidic group”, the pKa was 4.52.
For the molecule `Cn1cnc(/N=N/O)n1`, where the note is “acidic group”, the pKa is 5.48.
